# Assay results: patent US9758561B2 (priority 2014, dated 2017)
# Target: T1, human GLP-1 receptor (Homo sapiens, UniProt P43220)
# T1 construct: expressed in transfected cells; host or cells: HEK-293
# Assay: cAMP response of HEK-293 cells stably expressing human GLP-1 receptor (HTRF)
# Assay type: cell-based
# Settings: Table 6; read-out: EC50 hGLP-1R
# Description: For preparation, cells were split into T175 culture flasks and grown overnight to near confluency in medium (DMEM/10% FBS). Medium was then removed and cells washed with PBS lacking calcium and magnesium, followed by proteinase treatment with accutase (Sigma-Aldrich cat. no. A6964). Detached cells were washed and resuspended in assay buffer (1×HBSS; 20 mM HEPES, 0.1% BSA, 2 mM IBMX) and cellular density determined. They were then diluted to 400000 cells/ml and 25 μl-aliquots dispensed into the wells of 96-well plates. For measurement, 25 μl of test compound in assay buffer was added to the wells, followed by incubation for 30 minutes at room temperature. […] Potencies of peptidic compounds at the GLP-1, glucagon and GIP receptors were determined by exposing cells expressing human glucagon receptor (hGlucagon R), human GIP receptor (hGIP-R) or human GLP-1 receptor (hGLP-1R) to the listed compounds at increasing concentrations and measuring the formed cAMP as described in Methods.
# T1 sequence (P43220 24-463): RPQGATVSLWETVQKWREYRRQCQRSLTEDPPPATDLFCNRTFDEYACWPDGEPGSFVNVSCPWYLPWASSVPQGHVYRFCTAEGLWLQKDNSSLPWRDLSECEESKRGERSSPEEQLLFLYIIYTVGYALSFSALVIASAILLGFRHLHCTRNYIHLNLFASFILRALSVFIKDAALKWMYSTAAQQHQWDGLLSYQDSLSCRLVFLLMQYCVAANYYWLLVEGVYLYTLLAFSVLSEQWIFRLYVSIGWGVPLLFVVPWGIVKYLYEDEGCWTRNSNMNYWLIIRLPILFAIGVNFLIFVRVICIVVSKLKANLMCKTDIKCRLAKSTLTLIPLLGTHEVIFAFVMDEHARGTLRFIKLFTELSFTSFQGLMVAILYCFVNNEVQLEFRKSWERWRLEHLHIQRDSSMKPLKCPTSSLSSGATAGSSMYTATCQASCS
row,SMILES,EC50 [pM]
1,"CCCCCCCCCCCCCCCC(=O)N[C@@H](CCC(=O)N[C@@H](CCC(=O)NCCCC[C@H](NC(=O)[C@H](CCC(N)=O)NC(=O)[C@H](CCCCN)NC(=O)[C@H](CO)NC(=O)[C@H](CC(C)C)NC(=O)[C@H](CC(=O)O)NC(=O)[C@H](CO)NC(=O)[C@@H](NC(=O)[C@H](Cc1ccccc1)NC(=O)[C@@H](NC(=O)CNC(=O)[C@H](Cc1c[nH]cn1)NC(=O)[C@@H](CO)NC(=O)[C@@H](N)Cc1c[nH]cn1)[C@@H](C)O)[C@@H](C)O)C(=O)N[C@@H](CCC(=O)O)C(=O)N[C@@H](CCC(=O)O)C(=O)N[C@@H](CCC(=O)O)C(=O)N[C@@H](C)C(=O)N[C@@H](C)C(=O)N[C@@H](CCCNC(=N)N)C(=O)N[C@@H](CC(C)C)C(=O)N[C@@H](Cc1ccccc1)C(=O)N[C@H](C(=O)N[C@@H](CCC(=O)O)C(=O)N[C@@H](Cc1c[nH]c2ccccc12)C(=O)N[C@@H](CC(C)C)C(=O)NC(C)(C)C(=O)N[C@@H](CCCCN)C(=O)N[C@H](C)C(=O)NCC(=O)N1CCC[C@H]1C(=O)N[C@@H](CO)C(=O)N[C@@H](CO)C(=O)NCC(=O)N[C@@H](C)C(=O)N1CCC[C@H]1C(=O)N1CCC[C@H]1C(=O)N1CCC[C@H]1C(=O)N[C@@H](CO)C(N)=O)[C@@H](C)CC)C(=O)O)C(=O)O [SEQ ID NO: 27, H-dSer-H-G-T-F-T-S-D-L-S-K-Q-K(γE-γE-x53)-E-E-E-A-A-R-L-F-I-E-W-L-Aib-K-dAla-G-P-S-S-G-A-P-P-P-S-NH2]",2.1
2,"CCCCCCCCCCCCCCCCCC(=O)NCCOCCOCC(=O)NCCOCCOCC(=O)NCCOCCOCC(=O)NCCCC[C@H](NC(=O)[C@H](CCC(N)=O)NC(=O)[C@H](CCCCN)NC(=O)[C@H](CO)NC(=O)[C@H](CC(C)C)NC(=O)[C@H](CC(=O)O)NC(=O)[C@H](CO)NC(=O)[C@@H](NC(=O)[C@H](Cc1ccccc1)NC(=O)[C@@H](NC(=O)CNC(=O)[C@H](CCC(N)=O)NC(=O)[C@@H](CO)NC(=O)[C@@H](N)Cc1c[nH]cn1)[C@@H](C)O)[C@@H](C)O)C(=O)N[C@@H](CC(=O)O)C(=O)N[C@@H](CCC(=O)O)C(=O)N[C@@H](CCC(=O)O)C(=O)N[C@@H](C)C(=O)N[C@@H](C)C(=O)N[C@@H](CCCNC(=N)N)C(=O)N[C@@H](CC(C)C)C(=O)N[C@@H](Cc1ccccc1)C(=O)N[C@H](C(=O)N[C@@H](CCC(=O)O)C(=O)N[C@@H](Cc1c[nH]c2ccccc12)C(=O)N[C@@H](CC(C)C)C(=O)NC(C)(C)C(=O)N[C@@H](C)C(=O)NCC(=O)NCC(=O)N1CCC[C@H]1C(=O)N[C@@H](CO)C(=O)N[C@@H](CO)C(=O)NCC(=O)N[C@@H](C)C(=O)N1CCC[C@H]1C(=O)N1CCC[C@H]1C(=O)N1CCC[C@H]1C(=O)N[C@@H](CO)C(N)=O)[C@@H](C)CC [SEQ ID NO: 22, H-dSer-Q-G-T-F-T-S-D-L-S-K-Q-K(AEEAc-AEEAc-AEEAc-x70)-D-E-E-A-A-R-L-F-I-E-W-L-Aib-A-G-G-P-S-S-G-A-P-P-P-S-NH2]",1.8
3,"CCCCCCCCCCCCCCCC(=O)N[C@@H](CCC(=O)N[C@@H](CCC(=O)NCCCC[C@H](NC(=O)[C@H](CCC(N)=O)NC(=O)[C@H](CCCCN)NC(=O)[C@H](CO)NC(=O)[C@H](CC(C)C)NC(=O)[C@H](CC(=O)O)NC(=O)[C@H](CO)NC(=O)[C@@H](NC(=O)[C@H](Cc1ccccc1)NC(=O)[C@@H](NC(=O)CNC(=O)[C@H](CCC(N)=O)NC(=O)[C@@H](CO)NC(=O)[C@@H](N)Cc1c[nH]cn1)[C@@H](C)O)[C@@H](C)O)C(=O)N[C@@H](CC(=O)O)C(=O)N[C@@H](CCC(=O)O)C(=O)N[C@@H](CCC(=O)O)C(=O)N[C@@H](C)C(=O)N[C@@H](C)C(=O)N[C@@H](CCCNC(=N)N)C(=O)N[C@@H](CC(C)C)C(=O)N[C@@H](Cc1ccccc1)C(=O)N[C@H](C(=O)N[C@@H](CCC(=O)O)C(=O)N[C@@H](Cc1c[nH]c2ccccc12)C(=O)N[C@@H](CC(C)C)C(=O)NC(C)(C)C(=O)N[C@@H](CO)C(=O)NCC(=O)NCC(=O)N1CCC[C@H]1C(=O)N[C@@H](CO)C(=O)N[C@@H](CO)C(=O)NCC(=O)N[C@@H](C)C(=O)N1CCC[C@H]1C(=O)N1CCC[C@H]1C(=O)N1CCC[C@H]1C(=O)N[C@@H](CO)C(N)=O)[C@@H](C)CC)C(=O)O)C(=O)O [SEQ ID NO: 15, H-dSer-Q-G-T-F-T-S-D-L-S-K-Q-K(γE-γE-x53)-D-E-E-A-A-R-L-F-I-E-W-L-Aib-S-G-G-P-S-S-G-A-P-P-P-S-NH2]",1.8
4,"CCCCCCCCCCCCCCCC(=O)N[C@@H](CCC(=O)N[C@@H](CCC(=O)NCCCC[C@H](NC(=O)[C@H](CCC(N)=O)NC(=O)[C@H](CCCCN)NC(=O)[C@H](CO)NC(=O)[C@H](CC(C)C)NC(=O)[C@H](CC(=O)O)NC(=O)[C@H](CO)NC(=O)[C@@H](NC(=O)[C@H](Cc1ccccc1)NC(=O)[C@@H](NC(=O)CNC(=O)[C@H](CCC(N)=O)NC(=O)[C@@H](CO)NC(=O)[C@@H](N)Cc1c[nH]cn1)[C@@H](C)O)[C@@H](C)O)C(=O)N[C@@H](CC(=O)O)C(=O)N[C@@H](CCC(=O)O)C(=O)N[C@@H](CCC(=O)O)C(=O)N[C@@H](C)C(=O)N[C@H](C(=O)N[C@@H](CCCNC(=N)N)C(=O)N[C@@H](CC(C)C)C(=O)N[C@@H](Cc1ccccc1)C(=O)N[C@H](C(=O)N[C@@H](CCC(=O)O)C(=O)N[C@@H](Cc1c[nH]c2ccccc12)C(=O)N[C@@H](CC(C)C)C(=O)NC(C)(C)C(=O)N[C@@H](C)C(=O)NCC(=O)NCC(=O)N1CCC[C@H]1C(=O)N[C@@H](CO)C(=O)N[C@@H](CO)C(=O)NCC(=O)N[C@@H](C)C(=O)N1CCC[C@H]1C(=O)N1CCC[C@H]1C(=O)N1CCC[C@H]1C(=O)N[C@@H](CO)C(N)=O)[C@@H](C)CC)C(C)C)C(=O)O)C(=O)O [SEQ ID NO: 17, H-dSer-Q-G-T-F-T-S-D-L-S-K-Q-K(γE-γE-x53)-D-E-E-A-V-R-L-F-I-E-W-L-Aib-A-G-G-P-S-S-G-A-P-P-P-S-NH2]",2.4
5,"CCCCCCCCCCCCCCCCCC(=O)N[C@@H](CCC(=O)NCCCC[C@H](NC(=O)[C@H](CCC(N)=O)NC(=O)[C@H](CCCCN)NC(=O)[C@H](CO)NC(=O)[C@H](CC(C)C)NC(=O)[C@H](CC(=O)O)NC(=O)[C@H](CO)NC(=O)[C@@H](NC(=O)[C@H](Cc1ccccc1)NC(=O)[C@@H](NC(=O)CNC(=O)[C@H](Cc1c[nH]cn1)NC(=O)[C@@H](CO)NC(=O)[C@@H](N)Cc1c[nH]cn1)[C@@H](C)O)[C@@H](C)O)C(=O)N[C@@H](CC(=O)O)C(=O)N[C@@H](CCC(=O)O)C(=O)N[C@@H](CCC(=O)O)C(=O)N[C@@H](C)C(=O)N[C@@H](C)C(=O)N[C@@H](CCCNC(=N)N)C(=O)N[C@@H](CC(C)C)C(=O)N[C@@H](Cc1ccccc1)C(=O)N[C@H](C(=O)N[C@@H](CCC(=O)O)C(=O)N[C@@H](Cc1c[nH]c2ccccc12)C(=O)N[C@@H](CC(C)C)C(=O)NC(C)(C)C(=O)N[C@@H](C)C(=O)NCC(=O)NCC(=O)N1CCC[C@H]1C(=O)N[C@@H](CO)C(=O)N[C@@H](CO)C(=O)NCC(=O)N[C@@H](C)C(=O)N1CCC[C@H]1C(=O)N1CCC[C@H]1C(=O)N1CCC[C@H]1C(=O)N[C@@H](CO)C(N)=O)[C@@H](C)CC)C(=O)O [SEQ ID NO: 8, H-dSer-H-G-T-F-T-S-D-L-S-K-Q-K(γE-x70)-D-E-E-A-A-R-L-F-I-E-W-L-Aib-A-G-G-P-S-S-G-A-P-P-P-S-NH2]",1.8
6,"CCCCCCCCCCCCCCCCCC(=O)N[C@@H](CCC(=O)NCCOCCOCC(=O)NCCOCCOCC(=O)NCCCC[C@H](NC(=O)[C@H](CCC(N)=O)NC(=O)[C@H](CCCCN)NC(=O)[C@H](CO)NC(=O)[C@H](CC(C)C)NC(=O)[C@H](CC(=O)O)NC(=O)[C@H](CO)NC(=O)[C@@H](NC(=O)[C@H](Cc1ccccc1)NC(=O)[C@@H](NC(=O)CNC(=O)[C@H](CCC(N)=O)NC(=O)[C@@H](CO)NC(=O)[C@@H](N)Cc1c[nH]cn1)[C@@H](C)O)[C@@H](C)O)C(=O)N[C@@H](CC(=O)O)C(=O)N[C@@H](CCC(=O)O)C(=O)N[C@@H](CCC(=O)O)C(=O)N[C@@H](C)C(=O)N[C@@H](C)C(=O)N[C@@H](CCCNC(=N)N)C(=O)N[C@@H](CC(C)C)C(=O)N[C@@H](Cc1ccccc1)C(=O)N[C@H](C(=O)N[C@@H](CCC(=O)O)C(=O)N[C@@H](Cc1c[nH]c2ccccc12)C(=O)N[C@@H](CC(C)C)C(=O)NC(C)(C)C(=O)N[C@@H](C)C(=O)NCC(=O)NCC(=O)N1CCC[C@H]1C(=O)N[C@@H](CO)C(=O)N[C@@H](CO)C(=O)NCC(=O)N[C@@H](C)C(=O)N1CCC[C@H]1C(=O)N1CCC[C@H]1C(=O)N1CCC[C@H]1C(=O)N[C@@H](CO)C(N)=O)[C@@H](C)CC)C(=O)O [SEQ ID NO: 21, H-dSer-Q-G-T-F-T-S-D-L-S-K-Q-K(AEEAc-AEEAc- E-x70)-D-E-E-A-A-R-L-F-I-E-W-L-Aib-A-G-G-P-S-S-G-A-P-P-P-S-NH2]",1

# Same assay, conditions: Table 8; comparison Aib vs. Lys in position 27; read-out: EC50 hGLP-1R
row,SMILES,EC50 [pM]
1,"CCCCCCCCCCCCCCCC(=O)N[C@@H](CCC(=O)N[C@@H](CCC(=O)NCCCC[C@H](NC(=O)[C@H](CCC(N)=O)NC(=O)[C@H](CCCCN)NC(=O)[C@H](CO)NC(=O)[C@H](CC(C)C)NC(=O)[C@H](CC(=O)O)NC(=O)[C@H](CO)NC(=O)[C@@H](NC(=O)[C@H](Cc1ccccc1)NC(=O)[C@@H](NC(=O)CNC(=O)[C@H](CCC(N)=O)NC(=O)[C@H](CO)NC(=O)[C@@H](N)Cc1c[nH]cn1)[C@@H](C)O)[C@@H](C)O)C(=O)N[C@@H](CC(=O)O)C(=O)N[C@@H](CCC(=O)O)C(=O)N[C@@H](CCC(=O)O)C(=O)N[C@@H](C)C(=O)N[C@@H](C)C(=O)N[C@@H](CCCNC(=N)N)C(=O)N[C@@H](CC(C)C)C(=O)N[C@@H](Cc1ccccc1)C(=O)N[C@H](C(=O)N[C@@H](CCC(=O)O)C(=O)N[C@@H](Cc1c[nH]c2ccccc12)C(=O)N[C@@H](CC(C)C)C(=O)N[C@@H](CCCCN)C(=O)N[C@@H](C)C(=O)NCC(=O)NCC(=O)N1CCC[C@H]1C(=O)N[C@@H](CO)C(=O)N[C@@H](CO)C(=O)NCC(=O)N[C@@H](C)C(=O)N1CCC[C@H]1C(=O)N1CCC[C@H]1C(=O)N1CCC[C@H]1C(=O)N[C@@H](CO)C(N)=O)[C@@H](C)CC)C(=O)O)C(=O)O [SEQ ID NO: 33, H-S-Q-G-T-F-T-S-D-L-S-K-Q-K(γE-γE-x53)-DEEAARLFIEWLKAGGPSSGAPPPS-NH2, reference compound]",1
